Experimental data as given in ChEMBL document CHEMBL3045744, “Effect of pyriproxyfen, a juvenile hormone mimic, on egg hatch, nymph development, adult emergence and reproduction of the Asian citrus psyllid, Diaphorina citri Kuwayama” (2010).
≈ marks a conversion by molar mass, not a printed value. Calls of active or inactive are those of the source. The calls are words filed in the database; no cut-off is given here.

Tests used:
Diaphorina citri [1] = experiment: Ovicidal activity against Diaphorina citri in 2 to 3 months old citrus plant assessed as inhibition of old egg hatch at 64 ug/mL by residual contact bioassay; assay type: functional
Diaphorina citri [2] = experiment: Ovicidal activity against Diaphorina citri in 2 to 3 months old citrus plant assessed as inhibition of old egg hatch at 128 ug/mL by leaf dip bioassay; assay type: functional; settings: foliar
Diaphorina citri [3] = experiment: Ovicidal activity against Diaphorina citri in 2 to 3 months old citrus plant assessed as inhibition of old egg hatch at 4 to 8 ug/mL by leaf dip bioassay; assay type: functional, organism-based
Diaphorina citri [4] = experiment: Ovicidal activity against Diaphorina citri in 2 to 3 months old citrus plant assessed as inhibition of egg hatch measured 0 to 48 hr prior egg laying by residual contact bioassay; assay type: functional
Diaphorina citri [5] = experiment: Ovicidal activity against Diaphorina citri in 2 to 3 months old citrus plant assessed as inhibition of egg hatch measured 49 to 96 hr after egg laying by leaf dip bioassay; assay type: functional
Diaphorina citri [6] = experiment: Ovicidal activity against Diaphorina citri in 2 to 3 months old citrus plant assessed as inhibition of egg hatch measured 0 to 48 hr after egg laying by leaf dip bioassay; assay type: functional
Diaphorina citri [7] = experiment: Inhibition of reproduction in fifth-instar nymphs of Diaphorina citri in flush of citrus plants assessed as fecundity of egg at 100 ug/ml measured 0 to 3 days after emergence; assay type: functional, organism-based
Diaphorina citri [8] = experiment: Inhibition of reproduction in fifth-instar nymphs of Diaphorina citri in flush of citrus plants assessed as viability of egg at 100 ug/ml applied topically; assay type: functional, organism-based
Diaphorina citri [9] = experiment: Inhibition of reproduction in fifth-instar nymphs of Diaphorina citri in flush of citrus plants assessed as fecundity of egg at 100 ug/ml applied topically; assay type: functional, organism-based
Diaphorina citri [10] = experiment: Insecticidal activity against Diaphorina citri assessed as mortality at 100 ug/ml applied topically; assay type: functional, organism-based
Diaphorina citri [11] = experiment: Inhibition of reproduction in fifth-instar nymphs of Diaphorina citri in flush of citrus plants assessed as viability of egg at 64 ug/ml measured 10 to 12 days after emergence relative to control; assay type: functional, organism-based
Diaphorina citri [12] = experiment: Inhibition of reproduction in fifth-instar nymphs of Diaphorina citri in flush of citrus plants assessed as viability of egg at 64 ug/ml measured 7 to 9 days after emergence relative to control; assay type: functional
Diaphorina citri [13] = experiment: Inhibition of reproduction in fifth-instar nymphs of Diaphorina citri in flush of citrus plants assessed as viability of egg at 64 ug/ml measured 4 to 6 days after emergence relative to control; assay type: functional
Diaphorina citri [14] = experiment: Inhibition of reproduction in fifth-instar nymphs of Diaphorina citri in flush of citrus plants assessed as viability of egg at 32 to 64 ug/ml measured 0 to 3 days after emergence relative to control; assay type: functional
Diaphorina citri [15] = experiment: Inhibition of reproduction in fifth-instar nymphs of Diaphorina citri in flush of citrus plants assessed as fecundity of egg at 32 to 64 ug/ml measured 7 to 12 days after emergence relative to control; assay type: functional, organism-based
Diaphorina citri [16] = experiment: Inhibition of reproduction in fifth-instar nymphs of Diaphorina citri in flush of citrus plants assessed as fecundity of egg at 32 to 64 ug/ml measured 4 to 6 days after emergence relative to control; assay type: functional; parameters: scale not given: the % may be the effect or the level left
Diaphorina citri [17] = experiment: Inhibition of reproduction in fifth-instar nymphs of Diaphorina citri in flush of citrus plants assessed as fecundity of egg at 32 to 64 ug/ml measured 0 to 3 days after emergence relative to control; assay type: functional; parameters: scale not given: the % may be the effect or the level left
Diaphorina citri [18] = experiment: Induction of morphological abnormalities of fourth and fifth-instar nymphs of Diaphorina citri in flush of citrus plants at 32 to 64 ug/ml after 48 hr; assay type: functional, organism-based
Diaphorina citri [19] = experiment: Inhibition of reproduction in fifth-instar nymphs of Diaphorina citri in flush of citrus plants assessed as fecundity of egg at 100 ug/ml measured 4 to 6 days after emergence; assay type: functional, organism-based
Diaphorina citri [20] = experiment: Inhibition of reproduction in fifth-instar nymphs of Diaphorina citri in flush of citrus plants assessed as viability of egg at 100 ug/ml measured 4 to 6 days after emergence; assay type: functional, organism-based
Diaphorina citri [21] = experiment: Insecticidal activity against fourth-instar nymphs of Diaphorina citri nymph in flush of citrus plants assessed as mortality measured on fifth-instar stage after 48 hr; assay type: functional
Diaphorina citri [22] = experiment: Insecticidal activity against fifth-instar nymphs of Diaphorina citri nymph in flush of citrus plants assessed as mortality measured on fifth-instar stage after 48 hr; assay type: functional
Diaphorina citri [23] = experiment: Insecticidal activity against third- instar nymphs of Diaphorina citri nymph in flush of citrus plants assessed as mortality measured on fourth-instar stage after 48 hr; assay type: functional
Diaphorina citri [24] = experiment: Insecticidal activity against second-instar nymphs of Diaphorina citri nymph in flush of citrus plants assessed as mortality measured on third-instar stage after 48 hr; assay type: functional
Diaphorina citri [25] = experiment: Insecticidal activity against first-instar nymphs of Diaphorina citri nymph in flush of citrus plants assessed as mortality measured on second-instar stage after 48 hr; assay type: functional
Diaphorina citri [26] = experiment: Inhibition of reproduction in fifth-instar nymphs of Diaphorina citri in flush of citrus plants assessed as viability of egg at 100 ug/ml measured 7 to 12 days after emergence; assay type: functional, organism-based
Diaphorina citri [27] = experiment: Inhibition of reproduction in fifth-instar nymphs of Diaphorina citri in flush of citrus plants assessed as fecundity of egg at 100 ug/ml measured 7 to 12 days after emergence; assay type: functional, organism-based
Diaphorina citri [28] = experiment: Inhibition of reproduction in fifth-instar nymphs of Diaphorina citri in flush of citrus plants assessed as viability of egg at 100 ug/ml measured 0 to 3 days after emergence; assay type: functional, organism-based

SMILES: CC(COc1ccc(Oc2ccccc2)cc1)Oc1ccccn1 (stereo unspecified) [PYRIPROXYFEN]
- inhibition at 64 µg/mL (Diaphorina citri [1]): 70%
- inhibition at 128 µg/mL (Diaphorina citri [2]): > 90%
- inhibition (Diaphorina citri [3]): Active
- LC50 (Diaphorina citri [4]): 32.4 mg/L (≈ 101 µM)
- inhibition (Diaphorina citri [4]): Dose-dependent effect
- inhibition (Diaphorina citri [5]): Dose-dependent effect
- LC50 (Diaphorina citri [5]; foliar): 37 mg/L (≈ 115 µM)
- inhibition (Diaphorina citri [6]): Dose-dependent effect
- LC50 (Diaphorina citri [6]; foliar): 18.4 mg/L (≈ 57.4 µM)
- Activity (Diaphorina citri [7]): inactive
- Activity (Diaphorina citri [8]): Active
- Activity (Diaphorina citri [9]): Active
- Activity (Diaphorina citri [10]): inactive
- Activity (Diaphorina citri [11]): inactive
- Activity (Diaphorina citri [12]): 83%
- Activity (Diaphorina citri [13]): 59%
- Activity (Diaphorina citri [14]): 69%
- Activity (Diaphorina citri [15]): inactive
- Activity (Diaphorina citri [16]): 64%
- Activity (Diaphorina citri [17]): 58%
- Activity (Diaphorina citri [18]): Active
- Activity (Diaphorina citri [19]): Active
- Activity (Diaphorina citri [20]): Active
- LC50 (Diaphorina citri [21]): 44.3 mg/L (≈ 138 µM)
- LC50 (Diaphorina citri [22]): 51.3 mg/L (≈ 160 µM)
- LC50 (Diaphorina citri [23]): 25.2 mg/L (≈ 78.6 µM)
- LC50 (Diaphorina citri [24]): 21.6 mg/L (≈ 67.1 µM)
- LC50 (Diaphorina citri [25]): 17.6 mg/L (≈ 54.8 µM)
- Activity (Diaphorina citri [26]): inactive
- Activity (Diaphorina citri [27]): inactive
- Activity (Diaphorina citri [28]): Active
